From PubChem BioAssay AID2060901 (Molecular Pharmacology Branch, DTP, NCI, 2025)

Test system: 422866-222-R5-J1-PDC complex spheroids viability
Experiment: Anticancer human tumor 422866-222-R5-J1-PDC patient-derived pancreatic adenocarcinoma cell line growth inhibition [RAS]
Conditions: for viability, T/C: stronger effect = lower value
In short: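 Multi-cell-type spheroids: tumor cells plus HUVEC endothelial cells and mesenchymal stem cells. RAS-pathway inhibitors were combined with targeted agents, each dosed in half-log steps down from clinical Cmax, or from 10 microM when Cmax was unknown.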

[1] = curve of first compound, second compound 0.000949 µM
[2] = curve of first compound, second compound 0.003 µM
[3] = curve of first compound, second compound 0.00949 µM
[4] = curve of first compound, second compound 0.03 µM
[5] = curve of first compound, second compound 0.0949 µM
[6] = curve of first compound, second compound 0.3 µM
[7] = second compound 0.000949 µM, first compound 0.00316 µM
[8] = second compound 0.000949 µM, first compound 0.01 µM
[9] = second compound 0.000949 µM, first compound 0.0316 µM
[10] = second compound 0.000949 µM, first compound 0.1 µM
[11] = second compound 0.003 µM, first compound 0.00316 µM
[12] = second compound 0.003 µM, first compound 0.01 µM
[13] = second compound 0.003 µM, first compound 0.0316 µM
[14] = second compound 0.003 µM, first compound 0.1 µM
[15] = second compound 0.00949 µM, first compound 0.00316 µM
[16] = second compound 0.00949 µM, first compound 0.01 µM
[17] = second compound 0.00949 µM, first compound 0.0316 µM
[18] = second compound 0.00949 µM, first compound 0.1 µM
[19] = second compound 0.03 µM, first compound 0.00316 µM
[20] = second compound 0.03 µM, first compound 0.01 µM
[21] = second compound 0.03 µM, first compound 0.0316 µM
[22] = second compound 0.03 µM, first compound 0.1 µM
[23] = second compound 0.0949 µM, first compound 0.00316 µM
[24] = second compound 0.0949 µM, first compound 0.01 µM
[25] = second compound 0.0949 µM, first compound 0.0316 µM
[26] = second compound 0.0949 µM, first compound 0.1 µM
[27] = second compound 0.3 µM, first compound 0.00316 µM
[28] = second compound 0.3 µM, first compound 0.01 µM
[29] = second compound 0.3 µM, first compound 0.0316 µM
[30] = second compound 0.3 µM, first compound 0.1 µM
[31] = second compound 0.000949 µM, first compound 0.316 µM
[32] = second compound 0.000949 µM, first compound 1 µM
[33] = second compound 0.003 µM, first compound 0.316 µM
[34] = second compound 0.003 µM, first compound 1 µM
[35] = second compound 0.00949 µM, first compound 0.316 µM
[36] = second compound 0.00949 µM, first compound 1 µM
[37] = second compound 0.03 µM, first compound 0.316 µM
[38] = second compound 0.03 µM, first compound 1 µM
[39] = second compound 0.0949 µM, first compound 0.316 µM
[40] = second compound 0.0949 µM, first compound 1 µM
[41] = second compound 0.3 µM, first compound 0.316 µM
[42] = second compound 0.3 µM, first compound 1 µM
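Also: spheroids exposed to compounds for 7 days.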
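For viability, T/C in this document: 100% = DMSO vehicle control viability.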

CC(C)n1nc(-c2ccc3oc(N)nc3c2)c2c(N)ncnc21 + CCn1c(-c2cc(N3CCN(C)CC3)cnc2C(C)OC)c2c3cc(ccc31)-c1csc(n1)CC(NC(=O)C1CC1C)C(=O)N1CCCC(N1)C(=O)OCC(C)(C)C2
IC50 [1]: < 0.316 nM
IC50 [2]: < 0.316 nM
IC50 [3]: < 0.316 nM
IC50 [4]: < 0.316 nM
IC50 [5]: < 0.316 nM
IC50 [6]: < 0.316 nM
viability, T/C (second compound 0.000949 µM, first compound 0.000316 µM): 35.2%
viability, T/C (second compound 0.000949 µM, first compound 0.001 µM): 28.7%
viability, T/C [7]: 24.4%
viability, T/C [8]: 24.5%
viability, T/C [9]: 19.7%
viability, T/C [10]: 21%
viability, T/C (second compound 0.003 µM, first compound 0.000316 µM): 24.4%
viability, T/C (second compound 0.003 µM, first compound 0.001 µM): 22.4%
viability, T/C [11]: 19.5%
viability, T/C [12]: 17%
viability, T/C [13]: 14.3%
viability, T/C [14]: 14.4%
viability, T/C (second compound 0.00949 µM, first compound 0.000316 µM): 22.5%
viability, T/C (second compound 0.00949 µM, first compound 0.001 µM): 16.5%
viability, T/C [15]: 17.8%
viability, T/C [16]: 14.2%
viability, T/C [17]: 13.8%
viability, T/C [18]: 11.2%
viability, T/C (second compound 0.03 µM, first compound 0.000316 µM): 19.3%
viability, T/C (second compound 0.03 µM, first compound 0.001 µM): 16.1%
viability, T/C [19]: 19.1%
viability, T/C [20]: 15.7%
viability, T/C [21]: 11.6%
viability, T/C [22]: 8.47%
viability, T/C (second compound 0.0949 µM, first compound 0.000316 µM): 17.7%
viability, T/C (second compound 0.0949 µM, first compound 0.001 µM): 20.1%
viability, T/C [23]: 18.3%
viability, T/C [24]: 14.2%
viability, T/C [25]: 12.2%
viability, T/C [26]: 10.9%
viability, T/C (second compound 0.3 µM, first compound 0.000316 µM): 19.7%
viability, T/C (second compound 0.3 µM, first compound 0.001 µM): 21.3%
viability, T/C [27]: 20.5%
viability, T/C [28]: 16.4%
viability, T/C [29]: 14.5%
viability, T/C [30]: 10.9%

CCC(CC)c1cc(NC2CCC(N)C2)n2nccc2n1 (configuration not stated)
viability, T/C (compound 0.0316 µM): 99.2% [middle of 4 runs]
viability, T/C (compound 0.316 µM): 116% [middle of 4 runs]
viability, T/C (compound 1 µM): 106% [middle of 4 runs]
viability, T/C (compound 3.16 µM): 29.1% [middle of 4 runs]
viability, T/C (compound 10 µM): 37.6% [middle of 4 runs]
IC50 (curve of compound): 2.36 µM [middle of 4 runs]

Nc1ccn(C2OC(CO)C(O)C2(F)F)c(=O)n1 (configuration not stated) + CCn1c(-c2cccnc2C(C)OC)c2c3cc(ccc31)N1CCOC(CC(NC(=O)C(C(C)C)N(C)C(=O)C3(F)CCN(C(=O)C#CC(C)(C)N(C)C)CC3)C(=O)N3CCCC(N3)C(=O)OCC(C)(C)C2)C1
IC50 [1]: < 3.16 nM
IC50 [2]: < 3.16 nM
IC50 [3]: < 3.16 nM
IC50 [4]: < 3.16 nM
IC50 [5]: < 3.16 nM
IC50 [6]: < 3.16 nM
viability, T/C [7]: 25.9%
viability, T/C [8]: 23.6%
viability, T/C [9]: 25.8%
viability, T/C [10]: 23.4%
viability, T/C [31]: 23.1%
viability, T/C [32]: 18.5%
viability, T/C [11]: 22.8%
viability, T/C [12]: 20.6%
viability, T/C [13]: 20.3%
viability, T/C [14]: 17.5%
viability, T/C [33]: 16.3%
viability, T/C [34]: 13.8%
viability, T/C [15]: 22.7%
viability, T/C [16]: 20.1%
viability, T/C [17]: 17.9%
viability, T/C [18]: 15.7%
viability, T/C [35]: 15.6%
viability, T/C [36]: 15.2%
viability, T/C [19]: 18.8%
viability, T/C [20]: 22.6%
viability, T/C [21]: 17.1%
viability, T/C [22]: 13.3%
viability, T/C [37]: 14.6%
viability, T/C [38]: 16.9%
viability, T/C [23]: 17.2%
viability, T/C [24]: 17.9%
viability, T/C [25]: 15.9%
viability, T/C [26]: 13.1%
viability, T/C [39]: 13.3%
viability, T/C [40]: 12.9%
viability, T/C [27]: 14.2%
viability, T/C [28]: 17.2%
viability, T/C [29]: 14.3%
viability, T/C [30]: 12.4%
viability, T/C [41]: 12.5%
viability, T/C [42]: 11.4%

CCC(CC)c1cc(NC2CCC(N)C2)n2nccc2n1 (configuration not stated) + CCn1c(-c2cccnc2C(C)OC)c2c3cc(ccc31)N1CCOC(CC(NC(=O)C(C(C)C)N(C)C(=O)C3(F)CCN(C(=O)C#CC(C)(C)N(C)C)CC3)C(=O)N3CCCC(N3)C(=O)OCC(C)(C)C2)C1
IC50 [1]: < 31.6 nM
IC50 [2]: < 31.6 nM
IC50 [3]: < 31.6 nM
IC50 [4]: < 31.6 nM
IC50 [5]: < 31.6 nM
IC50 [6]: < 31.6 nM
viability, T/C [9]: 28.4%
viability, T/C [10]: 27.2%
viability, T/C [31]: 29.5%
viability, T/C [32]: 32.3%
viability, T/C (second compound 0.000949 µM, first compound 3.16 µM): 13.3%
viability, T/C (second compound 0.000949 µM, first compound 10 µM): 46.4%
viability, T/C [13]: 27.7%
viability, T/C [14]: 22.5%
viability, T/C [33]: 28.1%
viability, T/C [34]: 28.2%
viability, T/C (second compound 0.003 µM, first compound 3.16 µM): 12.1%
viability, T/C (second compound 0.003 µM, first compound 10 µM): 44.5%
viability, T/C [17]: 23.8%
viability, T/C [18]: 24.4%
viability, T/C [35]: 23.8%
viability, T/C [36]: 29.6%
viability, T/C (second compound 0.00949 µM, first compound 3.16 µM): 14.5%
viability, T/C (second compound 0.00949 µM, first compound 10 µM): 43.7%
viability, T/C [21]: 21.2%
viability, T/C [22]: 22.1%
viability, T/C [37]: 22.8%
viability, T/C [38]: 25.4%
viability, T/C (second compound 0.03 µM, first compound 3.16 µM): 12%
viability, T/C (second compound 0.03 µM, first compound 10 µM): 42%
viability, T/C [25]: 20.7%
viability, T/C [26]: 15.8%
viability, T/C [39]: 22.4%
viability, T/C [40]: 24.5%
viability, T/C (second compound 0.0949 µM, first compound 3.16 µM): 11.7%
viability, T/C (second compound 0.0949 µM, first compound 10 µM): 45.5%
viability, T/C [29]: 15.6%
viability, T/C [30]: 20.1%
viability, T/C [41]: 20.7%
viability, T/C [42]: 24.1%
viability, T/C (second compound 0.3 µM, first compound 3.16 µM): 12.5%
viability, T/C (second compound 0.3 µM, first compound 10 µM): 48.7%
